Measurements published in patent US20260234188A1, “CHEMOKINE-BINDING PEPTIDES” (Oxford University Innovation Limited, priority 2022, published 2026).
“Also recorded” adds a separate entry of the source.

Test system: panel of up to 42 human chemokines
Assay: Phage-display next generation sequencing screen of overlapping hexadecapeptide libraries, chemokines displayed on streptavidin beads
Format: binding
Text: FIG. 1. Exemplar results from phage display screens. Phage-display libraries were constructed and analysed as described in (McLaughlin, 2013) (Tonikian, 2007). […] FIG. 1A, CC chemokines against evasin A library. FIG. 1B, CXC chemokines against the evasin B library. FIG. 1C, CXC and CX3C chemokines against the viral chemokine binding protein library. FIG. 1D, CXC chemokines against the chemokine library. […] Identified hexadecapeptides were mapped to the position in the originating protein (x-axis) and to fold enrichment (log 2 E, left y-axis). Regions of interest (ROI) were defined where the cumulative residue log 2 E, (clog 2 E:r, right y-axis) exceeds the 95% upper confidence interval of the median clog 2 E:r for the entire protein (indicated as a horizontal dotted line in each panel). Proteins are referred to by their UniProt ID.
Hexadecapeptides were identified using a phage-display next generation sequencing approach (McLaughlin, 2013). Libraries containing a total of 55662 overlapping peptides (from the tick chemokine binding proteins shown in Tables 3A and 3B, the viral chemokine binding proteins shown in Table 3C, the human chemokines shown in Table 3 E, and the human/viral chemokine receptors and other chemokine-binding proteins shown in Table 3D) were first constructed, and then screened against a panel of up to 42 human chemokines, as shown in Table 3F.

[1] = log2E greater than 5, chemokines named by first part of UniProt Entry Name, peptides binding complement C5a (control) excluded
[2] = log2E greater than 5, chemokines named by first part of UniProt entry name, C5a (control) binders excluded
[3] = log2E greater than 5, chemokines named by first part of UniProt Entry Name

Substance	Chemokines Bound [1]	Chemokines Bound [2]	Chemokines Bound [3]
EB1522 (GNSTEGRCIELIGDFD)	CXL11, SDF1,; also recorded: CXL14		
CR10008 (ITLFASDFVLMWAVFF)		CCL1, CCL22,; also recorded: CXL10, CXL11	
EB963 (ENDKKVGLCLSTEYTD)	CXL10, CXL11, and SDF1		
CR15153 (LYSLLFLLGLLGNGAV)		CCL18, CCL22,; also recorded: CCL25	
CR8784 (IFAIVVAYFLSWGPYN)	CCL1, CCL15, and CCL17, CCL18, and CCL2, CCL20, and CCL22, CCL25, and CCL28, X3CL1, and CXL10, CXL11, and SDF1, CXL14, and IL8		
EB2359 (NDKKVGLCLSTEYTDF)	CXL10, CXL11,; also recorded: SDF1, CXL14		
CR20660 (SIILMFLSDFSFIFSS)		CCL25, CXL13, and IL8	
CR362 (AEIYEYLFFFSFFFLA)			CCL22, CXL11,; also recorded: CXL13
CR26500 (WFLPIMYSIICFVGLL)			CCL28, SDF1,; also recorded: CXL14
CR17907 (PYHWGWVLGDFLAKLL)		CCL17, CCL18,; also recorded: CCL25	
CR5669 (FLSIFYSVIFAIGLVG)	CCL17, CCL18,; also recorded: CCL19, CCL20,; also recorded: CCL28, X3CL1,; also recorded: CXL10, CXL14		
CR14850 (LVLGLLLNSLALWVFS)		CCL22, CCL28,; also recorded: CXL10, CXL11,; also recorded: SDF1, CXL14	
CR25244 (VLLSWKVLLTMVWGAA)			CCL11, CCL17,; also recorded: CCL18, CCL19,; also recorded: CCL2, CCL20,; also recorded: CCL22, CCL25,; also recorded: CCL28, X3CL1,; also recorded: CXL10, CXL11,; also recorded: SDF1, CXL13,; also recorded: CXL14, IL8
CR12432 (LGIILFSYVEILRTLF)		CCL17, CCL18, and CXL10, CXL11, and IL8	
CK6066 (VCADPSESWVQEYVYD)		CCL19, CCL28,; also recorded: X3CL1, IL8	
CR26799 (WVFIFSSIQLATVVFL)			CCL18, CCL19, and CCL20, CCL22, and CCL28, X3CL1, and CXL10, CXL11, and IL8
CR25802 (VSILVWLLAFSVSLPD)			CCL15, CCL18, and CCL19, CCL20, and CCL28, CXL10, and IL8
CR23111 (TLFASDFVLMWAVFFM)			CCL15, CCL17,; also recorded: CCL20, CCL25,; also recorded: CXL14
CR6520 (FWWIFAVIIAIPHFMV)	CXL10, CXL11		
CR6098 (FSIIAVFYFLLARAIS)	CCL17, CCL20,; also recorded: CCL22, CXL10,; also recorded: CXL11, CXL13,; also recorded: CXL14, IL8		
CR7860 (GWVLGDFLCKLLNMIF)	CCL1, CCL17, and CCL18, CCL19, and CCL2, CCL20, and CCL22, CCL28, and CCL8, CXL10, and SDF1, CXL13, and IL8		
CR13634 (LMLVFSFVSMLASLAH)		CCL19, CCL28,; also recorded: CXL13, CXL14	
CR22658 (TENFEYDDLAEACYIG)		CCL17, CCL18,; also recorded: X3CL1	

Substance	Chemokines Bound [1]	Chemokines Bound [2]	Chemokines Bound [3]
CR20981 (SLFSALVTLITSLFGS)		CCL1, CCL11,; also recorded: CCL17, CCL18,; also recorded: CCL2, CCL25,; also recorded: CCL8, X3CL1,; also recorded: CXL10, IL8	
CR15502 (MIFTWNLVLSQFFSIL)		CCL11, CCL17,; also recorded: CCL18, CCL19,; also recorded: CCL20, CCL22,; also recorded: CCL25, CCL28,; also recorded: CCL8, X3CL1,; also recorded: CXL10, CXL11,; also recorded: SDF1, CXL13,; also recorded: CXL14, IL8	
CR8812 (IFFIILLTIDRYLAIV)	CCL18, CCL19,; also recorded: CCL22, CXL14		
CR14780 (LVFVIGLVGNILVVLV)		CCL17, CCL18,; also recorded: CCL19, CCL20,; also recorded: CCL22, CCL25,; also recorded: CCL28, X3CL1,; also recorded: CXL10, CXL14	
CR4802 (FCALVTLITSLFGSIF)			CCL11, CCL17,; also recorded: CCL18, CCL19,; also recorded: CCL20, CCL22,; also recorded: CCL25, CCL28,; also recorded: CCL8, X3CL1,; also recorded: CXL10, CXL11,; also recorded: SDF1, CXL13,; also recorded: CXL14, IL8
CR23379 (TNFDFMILNLSFADLF)			CCL17, CCL18,; also recorded: X3CL1
LEEEDDYTAYAPLTCY [HD2134]	CCL1, CCL11, and CCL15, CCL17, and CCL18, CCL22, and CCL4, CCL5, and CCL8		
CR5103 (FGLLGNILVVITFAFY)			CCL19, CCL20,; also recorded: CCL22, CCL28,; also recorded: CXL10, SDF1,; also recorded: CXL14
CR7818 (GVWLMAIVGTFLNMLV)	CCL1, CCL18,; also recorded: CXL11, SDF1,; also recorded: CXL14		
CR10825 (KLIFAIVVAYFLSWGP)		CCL17, CCL28,; also recorded: CXL14	
CR5175: chemokine binding peptide of Table 5A used in FIG. 5 combinations (FGVWLMSIVGTFLNML)			CCL17, CCL22, and IL8
CR5519 (FLGLMCSVWTHLGMAL)	CCL28, X3CL1,; also recorded: CXL10, CXL11,; also recorded: SDF1, CXL13,; also recorded: CXL14, IL8		CCL1, CCL18,; also recorded: CCL2, CCL22,
CR26093 (VVCILVWLLAFCVSLP)			CCL20, X3CL1,; also recorded: CXL10, IL8
EB3085 (SGLCLSTTYIDFSEYG)	CXL10, CXL11,; also recorded: SDF1, CXL14		
CR25165 (VLGLLLNSLALWVFAA)			CCL19, CCL2,; also recorded: CCL20, CCL28
CR21168 (SLVFIFGFVGNMLVIL)		CCL1, CCL22,; also recorded: CCL28, CXL10,; also recorded: CXL13, CXL14	
CR9948 (ISVAWHWVFGSFLSKM)	CCL17, CCL18, and CCL20, CCL22, and CCL25, X3CL1, and CXL11, CXL14, and IL8		
CR12869 (LIWVISLLVSLPQIIY)		CCL17, CCL18, and X3CL1, CXL14, and IL8	
CR7477 (GPGPWMNILWAWFIFW)	CCL17, CCL18, and CCL19, CCL20, and CCL25, CXL13, and IL8		
CR6558 (FYISLFAGVSFLINLS)	CCL17, CCL18,; also recorded: CCL19, CCL20,; also recorded: CCL22, CCL25,; also recorded: CCL28, X3CL1,; also recorded: CXL10, CXL11,; also recorded: SDF1, CXL13,; also recorded: CXL14, IL8		
CR26630 (WLMCIVGTFLNVLVIT)			CCL1, CCL17,; also recorded: CCL18, CCL19,; also recorded: CCL20, CCL22,; also recorded: CCL28, CCL8,; also recorded: X3CL1, CXL10,; also recorded: CXL11, SDF1,; also recorded: CXL14, IL8
EB2047 (KSDEYELFTVEYCGTN)	CXL10, CXL11,; also recorded: SDF1, CXL14		
CR26655 (WMNILWAWFIFWWPHG)			CCL17, CCL18,; also recorded: CCL19, CCL20,; also recorded: CCL28, CXL10,; also recorded: SDF1, IL8

Substance	Chemokines Bound [1]	Chemokines Bound [2]	Chemokines Bound [3]
CR26547 (WHWVFGSFLAKMVSTL)			CCL1, X3CL1,; also recorded: CXL14
CR3800 (DYSIILMFLSDFSFIF)			CCL1, CCL11, and CCL15, CCL18, and CCL28, X3CL1, and CXL10, CXL11, and SDF1, CXL13, and IL8
CR6163 (FSRAIDIIYSLITSSN)	CCL17, CCL18,; also recorded: CCL2, CCL22,; also recorded: CCL28, X3CL1,; also recorded: CXL14		
CR13391 (LLQALYSAVVPLIYSC)		CCL1, CCL18,; also recorded: CXL14	
CR10279 (IYLLNLAISNLLFLVT)		CCL28, SDF1,; also recorded: CXL13, IL8	
CR27050 (YDLFIGIKIVYCFLWG)			CCL1, CCL17,; also recorded: CCL19, CCL20,; also recorded: CCL22, X3CL1,; also recorded: CXL10, CXL11,; also recorded: SDF1, CXL13,; also recorded: CXL14, IL8
CK1445 (FVVDYYETSSLCSQPA)		CCL19, CCL2, and X3CL1, SDF1, and IL8	
CR16988 (NVTFTGLIAAFSWFML)		CCL17, CCL18,; also recorded: CCL20, CCL22,; also recorded: CCL25, CCL28,; also recorded: CXL10, SDF1,; also recorded: CXL14	
EB630 (DKKVGLCLSTEYTDFS)	CXL10, SDF1,; also recorded: CXL14		
CR23572 (TRFGVWLMSIVGTFLN)			CCL17, CCL18,; also recorded: CCL2, CCL20,; also recorded: CCL22, CCL25,; also recorded: X3CL1, IL8
CR4756 (FASDFVLMWAVFFMTV)			CCL17, X3CL1,; also recorded: CXL10
CR4463 (ESLFAALVTLITSLFG)			CCL1, CCL17,; also recorded: CCL18, CCL2,; also recorded: X3CL1, CXL10,; also recorded: CXL11, IL8
CK3274 (LRCVCLQTTQGVHPKM)		X3CL1, CXL10,; also recorded: CXL11	
CR12163 (LFIGIKIVYAFLWGIF)		CCL18, CCL19,; also recorded: CCL2, CCL25,; also recorded: CCL28, X3CL1,; also recorded: CXL10, SDF1,; also recorded: CXL13, CXL14	
CR23947 (TVKLIFAIVVAYFLSW)			CCL17, CCL20,; also recorded: CCL22, CCL28,; also recorded: SDF1, CXL14
CR3135 (DFLCKLLNMIFSISLY)			CCL17, CCL22,; also recorded: CCL25, CCL28,; also recorded: CXL11, IL8
CR28001 (YVSFISTTILFLIFSV)			CCL1, CCL15,; also recorded: CCL17, CCL19,; also recorded: CCL20, CCL22,; also recorded: CCL25, CCL28,; also recorded: X3CL1, CXL10,; also recorded: CXL11, CXL14
CR6746 (GDFLAKLLNMIFSISL)	CCL20, CCL25,; also recorded: CCL28		
CR2158 (AVKIVFSFIWGVLPTM)		CCL18, CCL20,; also recorded: SDF1, CXL14	
CR6269 (FTGMPPADEDYSPCML)	CCL11, CCL17,; also recorded: CCL18, CCL19,; also recorded: CCL20		
CR4465 (ESLFSALVTLITSLFG)			CCL18, CCL8,; also recorded: CXL10
CR11295 (KVLWALQYIGLGFFAA)		CCL17, CCL18,; also recorded: CCL2, CXL10,; also recorded: SDF1, CXL14	
CR23915 (TVFLSIFYSVIFAIGL)			CCL17, CCL18,; also recorded: CCL19, CCL2,; also recorded: CCL20, CCL22,; also recorded: CCL25, CCL28,; also recorded: CCL8, X3CL1,; also recorded: CXL10, CXL11,; also recorded: SDF1, CXL13,; also recorded: CXL14, IL8
